Source: ChEMBL document CHEMBL3352715, “Synthesis of new verapamil analogues and their evaluation in combination with rifampicin against Mycobacterium tuberculosis and molecular docking studies in the binding site of efflux protein Rv1258c” (2014)
Values after ≈ are worked out from the molar mass of the structure shown.

Tested on: Mycobacterium tuberculosis
Test: Antimycobacterial activity against Mycobacterium tuberculosis H37Rv by MABA method
Format: functional

## COc1ccc(C(C#N)(CCCN2CCC(N3CCCCC3)CC2)C(C)C)cc1OC (stereo not drawn)
  MIC99: 500 µM (≈ 214 µg/mL)

## COc1ccc(C(C#N)(CCCN2CCN(c3ccccc3)CC2)C(C)C)cc1OC (stereo not drawn)
  MIC99: 250 µM (≈ 105 µg/mL)

## COc1ccc(CN(C)CCCC(C#N)(c2ccc(OC)c(OC)c2)C(C)C)cc1OC (stereo not drawn)
  MIC99: 1000 µM (≈ 441 µg/mL)

## COc1ccc(CCN(CCCC(C#N)(c2ccc(OC)c(OC)c2)C(C)C)C2CC2)cc1OC (stereo not drawn)
  MIC99: 125 µM (≈ 60.1 µg/mL)

## COc1ccc(CCN(CCCC(C#N)(c2ccc(OC)c(OC)c2)C(C)C)Cc2ccccc2)cc1OC (stereo not drawn)
  MIC99: 1000 µM (≈ 531 µg/mL)

## COc1ccc(N(C)CCCC(C#N)(c2ccc(OC)c(OC)c2)C(C)C)cc1OC (stereo not drawn)
  MIC99: 1000 µM (≈ 427 µg/mL)

## CCCN(CCCC(C#N)(c1ccc(OC)c(OC)c1)C(C)C)CCc1ccc(OC)c(OC)c1 (stereo not drawn)
  MIC99: 500 µM (≈ 241 µg/mL)

## COc1ccc(CCN(C)CCCC(C#N)(c2ccc(OC)c(OC)c2)C2CCCCC2)cc1OC (stereo not drawn)
  MIC99: 62.5 µM (≈ 30.9 µg/mL)

## COc1ccc(C(C#N)(CCCN2CCC(O)(c3ccccc3)CC2)C(C)C)cc1OC (stereo not drawn)
  MIC99: 250 µM (≈ 109 µg/mL)

## COc1ccc(C(C#N)(CCCN2CCN(c3ccccn3)CC2)C(C)C)cc1OC (stereo not drawn)
  MIC99: 250 µM (≈ 106 µg/mL)

## CO[C@H]1/C=C/O[C@@]2(C)Oc3c(C)c(O)c4c(O)c(c(/C=N/N5CCN(C)CC5)c(O)c4c3C2=O)NC(=O)/C(C)=C\C=C\[C@H](C)[C@H](O)[C@@H](C)[C@@H](O)[C@@H](C)[C@H](OC(C)=O)[C@@H]1C [RIFAMPIN]
  MIC99: 0.0083 µM (≈ 0.00683 µg/mL)

## COc1ccc(C(C#N)(CCCN2CCOCC2)C(C)C)cc1OC (stereo not drawn)
  MIC99: 1000 µM (≈ 346 µg/mL)

## COc1ccc(CCN(C)CCCC(C#N)c2ccc(OC)c(OC)c2)cc1OC (stereo not drawn)
  MIC99: 1000 µM (≈ 413 µg/mL)

## COc1ccc(C(C#N)(CCCN2CCCCC2)C(C)C)cc1OC (stereo not drawn)
  MIC99: 1000 µM (≈ 344 µg/mL)

## COc1ccc(C(C#N)(CCCN2CCC(O)CC2)C(C)C)cc1OC (stereo not drawn)
  MIC99: 1000 µM (≈ 360 µg/mL)

## COc1ccc(CCNCCCC(C#N)(c2ccc(OC)c(OC)c2)C(C)C)cc1OC (stereo not drawn) [NORVERAPAMIL]
  MIC99: 500 µM (≈ 220 µg/mL)

## COc1ccc(CCN(C)CCCC(C#N)(c2ccc(OC)c(OC)c2)C(C)C)cc1OC (stereo not drawn) [VERAPAMIL]
  MIC99: 500 µM (≈ 227 µg/mL)

## COc1ccc(C(C#N)(CCCN2CCN(c3ccccc3F)CC2)C(C)C)cc1OC (stereo not drawn)
  MIC99: 62.5 µM (≈ 27.5 µg/mL)

## COc1ccc(CCN(C)CCCC(C#N)(c2ccc(OC)c(OC)c2)C2CCCC2)cc1OC (stereo not drawn)
  MIC99: 125 µM (≈ 60.1 µg/mL)

## CCCC(C#N)(CCCN(C)CCc1ccc(OC)c(OC)c1)c1ccc(OC)c(OC)c1 (stereo not drawn)
  MIC99: 500 µM (≈ 227 µg/mL)

## COc1ccc(CCN(C)CCCC(C)(C#N)c2ccc(OC)c(OC)c2)cc1OC (stereo not drawn)
  MIC99: 1000 µM (≈ 427 µg/mL)

## CCC(C#N)(CCCN(C)CCc1ccc(OC)c(OC)c1)c1ccc(OC)c(OC)c1 (stereo not drawn)
  MIC99: 1000 µM (≈ 441 µg/mL)

## CCN(CCCC(C#N)(c1ccc(OC)c(OC)c1)C(C)C)CCc1ccc(OC)c(OC)c1 (stereo not drawn)
  MIC99: 1000 µM (≈ 469 µg/mL)
